Experimental data taken from ChEMBL document CHEMBL1130601, “Design and synthesis of 2-cyano-3,12-dioxoolean-1,9-dien-28-oic acid, a novel and highly active inhibitor of nitric oxide production in mouse macrophages” (Bioorg Med Chem Lett, 1998).

Tests used:
Assay type in all cases: functional, organism-based
Mus musculus [1] = species on record: Mus musculus; experiment: Compound was evaluated for inhibitory activity against production of nitric oxide (NO) induced by interferon-gamma (IFN-gamma) in mouse macrophages
Mus musculus [2] = species on record: Mus musculus; experiment: Compound was evaluated for inhibitory activity against production of nitric oxide (NO) induced by interferon-gamma (IFN-gamma) in mouse macrophages at a concentration of 0.01-40 uM
Mus musculus [3] = species on record: Mus musculus; experiment: Compound was evaluated for inhibitory activity against production of nitric oxide (NO) induced by interferon-gamma (IFN-gamma) in mouse macrophages at a concentration of 0.1-1 uM
Mus musculus [4] = species on record: Mus musculus; experiment: Compound was evaluated for inhibitory activity against production of nitric oxide (NO) induced by interferon-gamma (IFN-gamma) in mouse macrophages at a concentration of 0.01-40 uM; Toxic above 1 uM and not active below 1 uM

Structure (SMILES)	IC50 (Mus musculus [2]) [µM]	further results
C[C@@H]1C[C@H]2[C@@H]3CCC4=CC(=O)C=C[C@]4(C)[C@@]3(F)[C@@H](O)C[C@]2(C)[C@@]1(O)C(=O)CO [DEXAMETHASONE]	–	IC50 (Mus musculus [1]): 0.0003 µM
CC1(C)CC[C@]2(C(=O)O)CC[C@]3(C)C(=CC[C@@H]4[C@@]5(C)C=C(O)C(=O)C(C)(C)[C@@H]5CC[C@]43C)C2C1 (stereo not given in full)	37	–
CC1(C)CC[C@]2(C(=O)O)CC[C@]3(C)C(=CC(=O)[C@@H]4[C@@]5(C)C=CC(=O)C(C)(C)[C@@H]5CC[C@]43C)C2C1 (stereo not given in full)	1.4	–
CC1(C)CC[C@]2(C(=O)O)CC[C@]3(C)C(=CC[C@@H]4[C@@]5(C)CC[C@H](O)C(C)(C)[C@@H]5CC[C@]43C)[C@@H]2C1 [OLEANOLIC_ACID]	–	IC50 (Mus musculus [1]): > 40 µM
COC1=C[C@]2(C)[C@H]3CC=C4C5CC(C)(C)CC[C@]5(C(=O)O)CC[C@@]4(C)[C@]3(C)CC[C@H]2C(C)(C)C1=O (stereo not given in full)	19	–
CC1(C)CC[C@]2(C(=O)O)CC[C@]3(C)C(=CC[C@@H]4[C@@]5(C)C=C(C#N)C(=O)C(C)(C)[C@@H]5CC[C@]43C)C2C1 (stereo not given in full)	0.6	–
CC1(C)CC[C@]2(C(=O)O)CC[C@]3(C)[C@H](C(=O)C=C4[C@@]5(C)C=C(C#N)C(=O)C(C)(C)[C@@H]5CC[C@]43C)[C@@H]2C1 [BARDOXOLONE]	–	IC50 (Mus musculus [3]): 0.0004 µM
CC1(C)CC[C@]2(C(=O)O)CC[C@]3(C)C(=CC[C@@H]4[C@@]5(C)C=CC(=O)C(C)(C)[C@@H]5CC[C@]43C)C2C1 (stereo not given in full)	7.1	–
CC1(C)CC[C@]2(C(=O)O)CC[C@]3(C)C(=CC[C@@H]4[C@@]5(C)C=C(C=O)C(=O)C(C)(C)[C@@H]5CC[C@]43C)C2C1 (stereo not given in full)	–	IC50 (Mus musculus [4]): > 1 µM
CC1(C)CC[C@]2(C(=O)O)CC[C@]3(C)[C@H](C(=O)C=C4[C@@]5(C)C=CC(=O)C(C)(C)[C@@H]5CC[C@]43C)[C@@H]2C1	0.17	–
